target: T1, human Nav1.1 (Homo sapiens, UniProt P35498); assay: Amplification of Nav1.1-derived voltage-dependent sodium current (Nav1.1 current), cell line stably expressing human Nav1.1, automated patch clamp; format: cell-based; settings: 10 μmol/L compound (Test Result 5)
T1 construct: host or cells: HEK293
Description: Test 1: Evaluation of the Amplification of Nav1.1-Derived Voltage-Dependent Sodium Current (Nav1.1 Current) by Using a Cell Line Stably Expressing Human Nav1.1
(1) Preparation of Test Compounds
Test compounds were prepared by dissolving in DMSO at 200 times of the concentration at evaluation, and diluting the obtained solution to twice the concentration of evaluation with an extracellular fluid (135 mmol/L NaCl, 4 mmol/L KCl, 1 mmol/L MgCl2, 5 mmol/L CaCl2, 5 mmol/L Glucose, 10 mmol/L HEPES).
(2) Induction and Measurement of Nav1.1 Current
A HEK293 cell line stably expressing human Nav1.1 (cat #CYL3009, Millipore, USA, Human Embryonic Kidney 293) was purchased, and used in the present test. Nav1.1 current was induced by stimulating Ramp wave voltage. Detection of current which accompanied with the stimulation of voltage was carried out by a patch-clamp voltage-clamp method using HTS automated patch clamp system (SynchroPatch 768PE, Nanion Technologies GmbH, Germany). Only cells with more than 500 pA of voltage-dependent sodium channel current were used for the evaluation of the activity of compounds on Nav1.1 current because there was the possibility that currents derived from endogenous voltage-dependent sodium channels accounted for large proportion in cells with less than 500 pA of voltage-dependent sodium channel current which was induced by stimulating Ramp wave voltage.
(3) Pharmacologic Effect on Nav1.1 Current
The effect of test compounds on the amplification of Nav1.1-derived voltage-dependent sodium current was evaluated by using a cell line stably expressing human Nav1.1 and HTS automated patch clamp system. In other words, test compounds were added in an extracellular fluid containing 1% DMSO, and evaluated as a change of the peak value of Nav1.1 current and the area under the curve (AUC).
(4) Method for Pharmacological Evaluation
The Nav1.1 current amplification rates of test compounds were calculated by the following formula:
Nav1.1 current amplification rate (%)=100×[the peak value of Nav1.1 current or the area under the curve after the addition of test compounds]/[the peak value of Nav1.1 current or the area under the curve before the addition of test compounds]−100

SMILES	Nav1.1 current amplification rate (%)
N#Cc1ccc(NC(=O)Cn2nc(N3CCCC(C(F)(F)F)C3)ccc2=O)cc1 (stereo not drawn) [Example 16]	59
CC1C=C(c2ccc(=O)n(CC(=O)Nc3ccc(C#N)cc3)n2)CC(C)O1 (stereo not drawn) [Example 49]	2
CC1CCCN(c2ccc(=O)n(CC(=O)Nc3ccc(C#N)cc3)n2)C1 (stereo not drawn) [Example 13]	76
N#Cc1ccc(NC(=O)Cn2nc(N3CCC4(CCC4)C3)ccc2=O)cc1 [Example 34]	311
N#Cc1ccc(NC(=O)Cn2nc(N3CCC4(CC4)C3)ccc2=O)cc1 [Example 25]	163
CC1(C)CC=C(c2ccc(=O)n(CC(=O)Nc3ccc(C#N)cc3)n2)CC1 [Example 42]	216
N#Cc1ccc(NC(=O)Cn2nc(N3CCC4(CCCCC4)C3)ccc2=O)cc1 [Example 31]	220
N#Cc1ccc(NC(=O)Cn2nc(N3CCC4(CCCC4)C3)ccc2=O)cc1 [Example 24]	286
Cc1c(N2CCC(C)CC2)nn(CC(=O)Nc2ccc(C#N)cc2)c(=O)c1C [Example 35]	301
CC1CCC(c2ccc(=O)n(CC(=O)Nc3ccc(C#N)cc3)n2)CC1 (stereo not drawn) [Example 43]	174
N#Cc1ccc(NC(=O)Cn2nc(N3CCC4(CCC4)CC3)ccc2=O)cc1 [Example 26]	364
CC1(C)CCCN(c2ccc(=O)n(CC(=O)Nc3ccc(C#N)cc3)n2)C1 [Example 22]	110
N#Cc1ccc(NC(=O)Cn2nc(N3CCC(F)(F)CC3)ccc2=O)cc1 [Example 5]	6
CC(C)(C)C1CCN(c2ccc(=O)n(CC(=O)Nc3ccc(C#N)cc3)n2)CC1 [Example 6]	35

The remaining lines, values ahead:

Nav1.1 current amplification rate (%)	SMILES
35	CC1CC=C(c2ccc(=O)n(CC(=O)Nc3ccnc(CN4CCOCC4)c3)n2)CC1 (racemic) [Example 373]
35	CC1CC=C(c2ccc(=O)n(CC(=O)Nc3ccnc(CO)c3)n2)CC1 (racemic) [Example 370]
167	CC1CC=C(c2ccc(=O)n(CC(=O)N3CCc4c(C5CN(C(C)C)C5)cccc43)n2)CC1 (racemic) [Example 304]

same assay, conditions: 10 μmol/L compound (Test Result 5); read-out: Nav1.1 current amplification rate (%)

activation at 10 µM [%]	SMILES
174	CC1(C)CCC(c2ccc(=O)n(CC(=O)Nc3ccc(C#N)cc3)n2)CC1 [Example 38, N-(4-Cyanophenyl)-2-[3-(4,4-dimethylcyclohexyl)-6-oxopyridazin-1(6H)-yl]acetamide]
24	N#Cc1ccsc1-c1ccc(=O)n(CC(=O)Nc2ccn3ncnc3c2)n1 [Example 498]
148	CC1(C)CCN(c2ccc(=O)n(CC(=O)Nc3ccc(C#N)cc3)n2)CC1 [Example 2, N-(4-Cyanophenyl)-2-[3-(4,4-dimethylpiperidin-1-yl)-6-oxopyridazin-1(6H)-yl]acetamide]
93	N#Cc1ccc(NC(=O)Cn2nc(C3=CCC(F)(F)CC3)ccc2=O)cc1 [Example 37, N-(4-Cyanophenyl)-2-[3-(4,4-difluorocyclohex-1-en-1-yl)-6-oxopyridazin-1(6H)-yl]acetamide]
51	COc1cccc2c1CCN2C(=O)Cn1nc(N2CCC(C)(C)CC2)ccc1=O [Example 186]

same assay, conditions: Concentration 1 μM (Test Result 7); read-out: Nav1.1 current amplification rate (%)

activation at 1 µM [%]	SMILES
12	N#Cc1ccc(NC(=O)Cn2nc(N3CCC4(CC4)C(F)(F)C3)ccc2=O)cn1 [Example 560]
223	CC1CC=C(c2ccc(=O)n(CC(=O)Nc3ccc4cnccc4c3)n2)CC1 (stereo not drawn) [Example 545]
33	CC1CC=C(c2ccc(=O)n(CC(=O)Nc3cccc(N4CCOCC4)c3)n2)CC1 (stereo not drawn) [Example 549]
325	COc1cc(=O)n(CC(=O)Nc2ccc3cncnc3c2)nc1C1=CCC(C)(C)CC1 [Example 541]

same assay, conditions: Concentration 10 μM (Test Result 7); read-out: Nav1.1 current amplification rate (%)

activation at 10 µM [%]	SMILES
16	CC1CC=C(c2ccc(=O)n(CC(=O)Nc3ncc4ccccc4n3)n2)CC1 (stereo not drawn) [Example 551]
34	CN(CC1CC1)c1ccc(=O)n(CC(=O)Nc2ccn3ncnc3c2)n1 [Example 559]

same assay, conditions: compound 50 μmol/L; HEK293 stably expressing human Nav1.1

SMILES	Nav1.1 current amplification rate (%)
Cc1ccc(-c2ccc(=O)n(CC(=O)N3CCc4ccccc43)n2)cc1 [Example 157]	29
CC1CC=C(c2ccc(=O)n(CC(=O)N3CCc4c(C=C5CCNCC5)cccc43)n2)CC1 (racemic) [Example 293]	55

Results, then the compound that gave them:

Nav1.1 current amplification rate (%)	SMILES
32	CC1CC=C(c2ccc(=O)n(CC(=O)Nc3cncc(CN(C)C)c3)n2)CC1 (racemic) [Example 365]
37	COC1CN(Cc2cncc(NC(=O)Cn3nc(C4=CCC(C)CC4)ccc3=O)c2)C1 (racemic) [Example 366]
68	Cc1nc(N2CCN(C(=O)Cn3nc(C4=CCC(C)CC4)ccc3=O)CC2)no1 (stereo not drawn) [Example 406]
18	CC1CC=C(c2ccc(=O)n(CC(=O)N3CCN(C4CCOCC4)CC3)n2)CC1 (stereo not drawn) [Example 411]
43	CC1CC=C(c2ccc(=O)n(CC(=O)Nc3ccc4ncccc4c3)n2)CC1 (racemic) [Example 357]

same assay, conditions: compound 50 μmol/L; HEK293 stably expressing human Nav1.1; read-out: Nav1.1 current amplification rate (%)

activation at 50 µM [%]	SMILES
9	Cc1ccc(Oc2ccc(=O)n(CC(=O)Nc3ccn4ncnc4c3)n2)cc1 [Example 530]
10	CC1(C)CC(c2ccc(=O)n(CC(=O)Nc3ccc(C#N)cc3)n2)=CCO1 [Example 506]

same assay, conditions: concentration of each compound 1 μmol/L (Test Result 6)

SMILES	Nav1.1 current amplification rate (%)
COC1CN(Cc2cccc3c2CCN3C(=O)Cn2nc(C3=CCC(C)CC3)ccc2=O)C1 (racemic) [Example 274]	60
CC1CC=C(c2ccc(=O)n(CC(=O)N3CCc4c3ccc(F)c4-c3ccnnc3)n2)CC1 (racemic) [Example 295]	95
CC1CC=C(c2ccc(=O)n(CC(=O)N3CCc4c(CN5CCCCC5)cccc43)n2)CC1 (racemic) [Example 282]	26
CC1CC=C(c2ccc(=O)n(CC(=O)N3CCc4c3ccnc4C3=CCOCC3)n2)CC1 (racemic) [Example 296]	87
COCCN(C)Cc1cccc2c1CCN2C(=O)Cn1nc(C2=CCC(C)CC2)ccc1=O (racemic) [Example 275]	46

The remaining lines, values ahead:

Nav1.1 current amplification rate (%)	SMILES
31	CC1CC=C(c2ccc(=O)n(CC(=O)Nc3ccc4ncnn4n3)n2)CC1 (racemic) [Example 350]
71	COC1CCN(c2nccc3c2CCN3C(=O)Cn2nc(C3=CCC(C)CC3)ccc2=O)CC1 (racemic) [Example 309]
25	Cc1cc(NC(=O)Cn2nc(C3=CCC(C)CC3)ccc2=O)cc(C)n1 (racemic) [Example 364]
66	CC1CC=C(c2ccc(=O)n(CC(=O)N3CC=C(c4ccncc4)CC3)n2)CC1 (stereo not drawn) [Example 419]
19	CC1CC=C(c2ccc(=O)n(CC(=O)N3CCc4c(CNC5CCC5)cccc43)n2)CC1 (racemic) [Example 315]
80	O=C(Cn1nc(-c2cc(Cl)cs2)ccc1=O)Nc1ccn2ccnc2c1 [Example 467]
44	CC1CC=C(c2ccc(=O)n(CC(=O)Nc3ccc4nccn4c3)n2)CC1 (racemic) [Example 343]
71	CC1CC=C(c2ccc(=O)n(CC(=O)Nc3ccn4cnnc4c3)n2)CC1 (racemic) [Example 358]
68	CC1CC=C(c2ccc(=O)n(CC(=O)Nc3ccc4c(cnn4C)c3)n2)CC1 (racemic) [Example 336]
41	CC1CC=C(c2ccc(=O)n(CC(=O)N3CCc4c(CNC5CCOCC5)cccc43)n2)CC1 (racemic) [Example 317]
9	COCCNCc1cccc2c1CCN2C(=O)Cn1nc(C2=CCC(C)CC2)ccc1=O (racemic) [Example 314]

same assay, conditions: concentration of each compound 1 μmol/L (Test Result 6); read-out: Nav1.1 current amplification rate (%)

SMILES	activation at 1 µM [%]
CC1(C)CCN(c2ccc(=O)n(CC(=O)Nc3ccn4ncnc4c3)n2)CC1 [Example 228]	29
O=C(Cn1nc(N2CCC3(CCC3)C2)ccc1=O)Nc1ccc2cncnc2c1 [Example 236, 2-[3-(6-azaspiro[3.4]octan-6-yl)-6-oxopyridazin-1(6H)-yl]-N-(quinazolin-7-yl)acetamide]	214

The next lines start with the values.

activation at 1 µM [%]	SMILES
33	Cc1cc(=O)n(CC(=O)Nc2ccc3ncnn3c2)nc1C1=CCC(C)CC1 (stereo not drawn) [Example 501]
43	O=C(Cn1nc(-c2cc(Cl)cs2)ccc1=O)Nc1ccn2ncnc2c1 [Example 497]

Source: patent US20220347175A1, “PYRIDAZINONE DERIVATIVE” (Sumitomo Dainippon Pharma Co., Ltd., priority 2018, published 2022)
